Laboratory results as given in patent US8355877B2, “System for predicting responsiveness to a pharmaceutical therapy for obesity” (priority 2007, dated 2013).

How the values were obtained:
[1] = test system: DIO-LE rats maintained on a high fat chow; assay: Cross therapeutic target rat study: reduction of TRL V6 concentration (NMR LipoProfile) after an acute dose; format: in vivo
Experimental: (§1) As a typical example, whole blood samples are collected into 2 ml EDTA blood collection tubes, inverted several times to mix well, and placed on ice. The samples are then centrifuged at approximately 3000 rpm for 10-15 minutes at 4° C. Upon completion of centrifugation, the tube is placed on ice and the plasma is drawn off. The plasma is place into a polypropylene tube and kept at 4° C. until analysis. Samples may be analyzed at any time up to about 4 days after collection. Samples are analyzed for TRL V6 response, as for example by NMR plasma lipoprotein analysis, as for example, the NMR LipoProfile®, the NMR LipoProfile®-II or the NMR LipoProfile®-III lipoprotein tests provided by LipoScience, Inc. of Raleigh, N.C.
(§2) NMR spectral data is analyzed as described in Jeyarajah et al., supra. Lipoprotein subclass concentrations are reported in lipid mass concentration units (TRL subclasses in units of mg/dL triglyceride) or, alternatively, in particle concentration units of nmol/L (nanomoles of particles per liter). The source information (NMR signal amplitude of each subclass) is transformed into these mass or particle concentration units by the analysis software, using a set of conversion factors obtained from chemical lipid and NMR analyses of isolated chylomicron, VLDL, LDL, and HDL subclass standards of normal lipid composition.
The ability of investigational weight loss pharmaceutical agents to reduce the TRL V6 concentration in rats is shown with three compounds targeting different mechanisms of action including a known potent and selective 5-HT2C receptor agonist, a known potent and selective CB-1 receptor antagonist/inverse agonist, and a potent SNDRI (sibutramine). Each of these compounds are known to induce weight loss in rats and thus the biomarker of reduction in TRL V6 concentration correlates to the investigational weight loss pharmaceutical agents' ability to induce weight loss. Conversely, an opiate antagonist, (naltrexone) which is known to be ineffective in inducing weight loss in rats or in overweight and obese human subjects (Malcolm R et al., Int. J. Obes. 1985; 9(5):347-53), is shown to not reduce the TRL V6 concentration in rats, again correlating the biomarker of reduction in TRL V6 concentration to the investigational weight loss pharmaceutical agents' ability to induce weight loss.
DIO-LE rats maintained on a high fat chow are administered either a vehicle dose or an acute dose of test compound. At specified time points post dose, animals are sacrificed and blood is collected in blood sample tubes containing EDTA and processed essentially as described above. Samples are analyzed by NMR LipoProfile® lipoprotein sub-particle test with report of all particle subtypes (specifically the TRL V6 concentration or particle number).

[2] = test system: hypertriglyceridemic and overweight and obese but otherwise healthy subjects; assay: Human study with a SNDRI (sibutramine): TRL response to fat load, single-blind crossover vs placebo, NMR LipoProfile III; format: in vivo
Experimental: Note that where TRL V6 response can be equated with the response of a combination of subtypes, it is because the magnitude of the change in signal, which is due to the change of TRL V6 signal, is sufficiently large compared to the base line signal, to be a significant difference (i.e. the signal from TRL V6 in the base line signal dominates the combined signal so that a change in TRL V6 is reliably detected).
as §1, §2
A SNDRI (sibutramine) known to be able to induce weight loss in humans is tested to correlate its ability to reduce TRL V6 response plasma concentrations and V-TRL response in humans in an exploratory biomarker study employing a single-blind, crossover design, comparing sibutramine and placebo in hypertriglyceridemic and overweight and obese but otherwise healthy subjects.
Three cohorts containing 6 subjects each, undergo three periods during the study. Subjects are fasted overnight and two fasting blood draws are obtained, followed by breakfast at approximately 07:00 hours. Placebo or sibutramine is administered at approximately 10:00 hours. Blood sampling is begun approximately 1 hr. after the start of breakfast and continues at hourly intervals for 7 hr., and then every 2 hr. for the next 10 hr. A lunch according to Example fat load 2 is served at approximately 12:00 hours (approximately 60 to 65 g of fat). No other food is permitted until 12 hr. post fat load administration. Subjects are released after the last blood sampling for a 4 to 8-day washout period before return for the second testing period of the study. After the washout period, subjects are again fasted overnight. The procedures are then repeated as in the first testing period of the study except that each subject crosses over to receive the alternate treatment, sibutramine or placebo. Blood samples are collected, processed and analyzed essentially as described in Example 1 above.
TRL V6 responses and V-TRL responses are observed during the period from 5 to 11 hr. post fat load. […] In most subjects, the administration of sibutramine reduced the magnitude of the TRL V6 response and V-TRL response compared to their placebo-treated responses. Thus the reduction of the TRL V6 response and V-TRL response induced by the SNDRI correlates with the SNDRI known ability to induce weight loss in humans.

[3] = rats, 5-HT2C agonist 10 mg/kg, CB-1 antagonist 0.3 mg/kg, SNDRI 3 mg/kg, naltrexone 10 mg/kg oral
[4] = 5 hr. post dose, CB-1 antagonist 0.3 mg/kg, SNDRI 3 mg/kg, rats
[5] = AUC 5-11 hr. post fat load vs placebo, humans
[6] = AUC from lipid load vs placebo, Table 2

O=C1CC[C@@]2(O)[C@H]3Cc4ccc(O)c5c4[C@@]2(CCN3CC2CC2)[C@H]1O5 [Naltrexone, naltrexone]
TRL V6 level versus baseline at 18 hr. post dose ([1]; 10 mg/kg oral, 18 hr. post dose, rats): unchanged
effect on circulating TRL V6 levels ([1]; 10 mg/kg orally administrated dose, rats): minimal effect
time post dose at which TRL V6 plasma concentration returns to baseline [1, 3]: 5 h

CC(C)CC(N(C)C)C1(c2ccc(Cl)cc2)CCC1 (stereo not drawn) [Sibutramine, sibutramine]
reduction of TRL V6 concentration ([1]; 2 hr. post dose, 3 mg/kg, rats): about 78%
reduction of circulating concentration of TRL V6 ([1]; 2 hr. post dose, 5-HT2C agonist 10 mg/kg, SNDRI 3 mg/kg, naltrexone 10 mg/kg oral, rats): about 78%
reduction of TRL V6 concentration [1, 4]: about 78%
reduction of circulating concentration of TRL V6 [1, 4]: about 78%
Reduction in TRL V6 Response, T1-(ie 2 hrs) ([1]; T1 (ie 2 hrs) post dose, dose per compound in column Dose (10, 0.3, 3, 10 mg/kg), DIO-LE rats): 78%
Reduction in TRL V6 Response, T2-(ie 5 hrs) ([1]; T2 (ie 5 hrs) post dose, dose per compound in column Dose, DIO-LE rats): 78%
Reduction in TRL V6 Response, T3-(ie 18 hrs) ([1]; T3 (ie 18 hrs) post dose, dose per compound in column Dose, DIO-LE rats): 0%
time post dose at which TRL V6 plasma concentration returns to baseline [1, 3]: ≤ 18 h
change in mean V-TRL response [2, 5]: statistically significant decrease
change in the plasma concentrations of TRL V1, V2, V3, V4, or V5 subtypes [2, 5]: does not show a significant change
decrease in the TRL V6 response (AUC) vs placebo ([2]; AUC 5-11 hr. post fat load, mixed effects model, statistically significant, humans): about 28%
change in TRL V6+TRL V5 [2, 6]: did not produce a significant change
change in TRL V6+TRL V5+chylomicrons [2, 6]: did not produce a significant change
change in TRL V6+chylomicrons [2, 6]: showed a significant change
effect on TRL V6 response [2, 6]: reduced the TRL V6 response
Sibutramine/Placebo Ratio of AUC, TRL V5 ([2]; TRL V5, AUC 5-11 hr. from lipid load, P 0.474): 1.10
Geometric LS Mean of AUC, TRL V5 ([2]; TRL V5, AUC 5-11 hr. time points from lipid load, human plasma, NMR): 222.34
Sibutramine/Placebo Ratio of AUC, TRL V6 + Chy ([2]; TRL V6 + Chy, AUC 5-11 hr. from lipid load, P 0.004): 0.81
Geometric LS Mean of AUC, TRL V6 + Chy ([2]; TRL V6 + Chy, AUC 5-11 hr. time points from lipid load, human plasma, NMR): 205.0
Sibutramine/Placebo Ratio of AUC, TRL V6 + TRL V5 ([2]; TRL V6 + TRL V5, AUC 5-11 hr. from lipid load, P 0.091): 0.88
Geometric LS Mean of AUC, TRL V6 + TRL V5 ([2]; TRL V6 + TRL V5, AUC 5-11 hr. time points from lipid load, human plasma, NMR): 364.08
Sibutramine/Placebo Ratio of AUC, TRL V6 + V5 + Chy ([2]; TRL V6 + V5 + Chy, AUC 5-11 hr. from lipid load, P 0.110): 0.89
Geometric LS Mean of AUC, TRL V6 + V5 + Chy ([2]; TRL V6 + V5 + Chy, AUC 5-11 hr. time points from lipid load, human plasma, NMR): 458.04
Sibutramine/Placebo Ratio of AUC, TRL V6 ([2]; TRL V6, AUC 5-11 hr. from lipid load, P 0.001): 0.73
Geometric LS Mean of AUC, TRL V6 ([2]; TRL V6, AUC 5-11 hr. time points from lipid load, human plasma, NMR): 119.35
Sibutramine/Placebo Ratio of AUC, Chy ([2]; chylomicrons, AUC 5-11 hr. from lipid load, P 0.721): 0.98
Geometric LS Mean of AUC, Chy ([2]; chylomicrons, AUC 5-11 hr. time points from lipid load, human plasma, NMR): 81.11
